Results taken from ChEMBL document CHEMBL3991601, “The target landscape of clinical kinase drugs” (Science, 2017).
The source made the active and inactive calls.

Columns and labels:
[1] = biological target: Cyclin-dependent kinase 17 (Homo sapiens, UniProt Q00537)
[2] = biological target: T1, ATP-dependent RNA helicase DHX30 (Homo sapiens, UniProt Q7L2E3)
T1 sequence (Q7L2E3 whole entry): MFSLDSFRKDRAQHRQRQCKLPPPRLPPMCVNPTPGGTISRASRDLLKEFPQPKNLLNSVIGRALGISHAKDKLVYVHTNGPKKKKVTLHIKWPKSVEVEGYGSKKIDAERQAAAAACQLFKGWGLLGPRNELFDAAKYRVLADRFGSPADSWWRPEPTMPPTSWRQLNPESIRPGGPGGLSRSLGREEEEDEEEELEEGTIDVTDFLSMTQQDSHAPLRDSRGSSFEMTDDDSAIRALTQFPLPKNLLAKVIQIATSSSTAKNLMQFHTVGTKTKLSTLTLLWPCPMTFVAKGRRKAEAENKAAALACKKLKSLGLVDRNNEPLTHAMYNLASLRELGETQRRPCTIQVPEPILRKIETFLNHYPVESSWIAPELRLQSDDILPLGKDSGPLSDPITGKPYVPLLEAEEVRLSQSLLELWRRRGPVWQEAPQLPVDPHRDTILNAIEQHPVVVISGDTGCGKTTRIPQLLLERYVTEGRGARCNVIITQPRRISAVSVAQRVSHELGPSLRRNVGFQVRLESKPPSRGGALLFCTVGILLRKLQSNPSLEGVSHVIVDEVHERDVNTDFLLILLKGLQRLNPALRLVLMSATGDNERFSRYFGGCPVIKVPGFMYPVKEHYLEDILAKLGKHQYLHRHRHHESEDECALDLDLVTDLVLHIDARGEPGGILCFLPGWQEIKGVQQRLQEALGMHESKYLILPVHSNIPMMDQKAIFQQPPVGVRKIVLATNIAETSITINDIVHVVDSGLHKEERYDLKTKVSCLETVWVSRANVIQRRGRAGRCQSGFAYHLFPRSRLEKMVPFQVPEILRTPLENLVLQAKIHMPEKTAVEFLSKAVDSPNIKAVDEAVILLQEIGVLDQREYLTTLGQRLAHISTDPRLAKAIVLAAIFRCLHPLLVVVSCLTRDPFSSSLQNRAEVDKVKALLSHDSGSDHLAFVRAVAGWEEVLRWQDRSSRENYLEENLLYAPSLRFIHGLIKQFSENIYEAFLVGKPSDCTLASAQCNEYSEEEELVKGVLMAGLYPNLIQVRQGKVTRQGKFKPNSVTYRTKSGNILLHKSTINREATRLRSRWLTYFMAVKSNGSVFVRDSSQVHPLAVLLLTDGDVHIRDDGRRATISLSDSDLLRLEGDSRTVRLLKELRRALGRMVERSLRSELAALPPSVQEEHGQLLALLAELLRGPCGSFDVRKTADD

[3] = biological target: Epidermal growth factor receptor (Homo sapiens, UniProt P00533)
Chain of Epidermal growth factor receptor (P00533 whole entry): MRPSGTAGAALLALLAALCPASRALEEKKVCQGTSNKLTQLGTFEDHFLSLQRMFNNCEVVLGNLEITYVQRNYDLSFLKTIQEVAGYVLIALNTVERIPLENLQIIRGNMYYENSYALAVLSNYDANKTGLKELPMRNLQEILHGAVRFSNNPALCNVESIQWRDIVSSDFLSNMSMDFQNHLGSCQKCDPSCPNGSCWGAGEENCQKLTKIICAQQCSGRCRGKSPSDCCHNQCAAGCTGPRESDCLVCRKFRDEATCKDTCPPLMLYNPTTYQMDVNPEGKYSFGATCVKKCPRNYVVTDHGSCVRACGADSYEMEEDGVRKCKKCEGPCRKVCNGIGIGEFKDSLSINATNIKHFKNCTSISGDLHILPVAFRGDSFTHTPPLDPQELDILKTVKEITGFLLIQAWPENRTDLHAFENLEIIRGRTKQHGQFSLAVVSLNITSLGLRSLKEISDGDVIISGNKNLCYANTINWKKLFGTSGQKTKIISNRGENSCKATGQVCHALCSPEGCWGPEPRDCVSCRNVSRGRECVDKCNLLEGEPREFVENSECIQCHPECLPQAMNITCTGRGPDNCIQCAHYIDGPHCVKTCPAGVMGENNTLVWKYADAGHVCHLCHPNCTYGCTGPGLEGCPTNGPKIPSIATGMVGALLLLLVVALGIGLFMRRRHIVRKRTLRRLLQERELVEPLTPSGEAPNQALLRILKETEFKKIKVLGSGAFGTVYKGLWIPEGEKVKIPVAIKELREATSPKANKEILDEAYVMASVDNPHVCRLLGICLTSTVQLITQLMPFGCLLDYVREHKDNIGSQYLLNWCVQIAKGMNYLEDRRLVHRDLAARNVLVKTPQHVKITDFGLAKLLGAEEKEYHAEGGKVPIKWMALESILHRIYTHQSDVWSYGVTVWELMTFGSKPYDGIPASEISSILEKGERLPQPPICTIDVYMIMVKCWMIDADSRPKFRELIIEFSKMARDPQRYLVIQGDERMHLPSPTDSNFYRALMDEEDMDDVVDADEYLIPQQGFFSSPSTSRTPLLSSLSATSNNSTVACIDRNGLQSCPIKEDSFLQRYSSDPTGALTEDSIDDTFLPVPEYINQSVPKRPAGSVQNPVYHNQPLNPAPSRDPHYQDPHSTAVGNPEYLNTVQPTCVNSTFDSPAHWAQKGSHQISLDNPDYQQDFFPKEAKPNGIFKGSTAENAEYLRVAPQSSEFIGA

[4] = biological target: T2, Isoleucine--tRNA ligase, mitochondrial (Homo sapiens, UniProt Q9NSE4)
T2 sequence (Q9NSE4 whole entry): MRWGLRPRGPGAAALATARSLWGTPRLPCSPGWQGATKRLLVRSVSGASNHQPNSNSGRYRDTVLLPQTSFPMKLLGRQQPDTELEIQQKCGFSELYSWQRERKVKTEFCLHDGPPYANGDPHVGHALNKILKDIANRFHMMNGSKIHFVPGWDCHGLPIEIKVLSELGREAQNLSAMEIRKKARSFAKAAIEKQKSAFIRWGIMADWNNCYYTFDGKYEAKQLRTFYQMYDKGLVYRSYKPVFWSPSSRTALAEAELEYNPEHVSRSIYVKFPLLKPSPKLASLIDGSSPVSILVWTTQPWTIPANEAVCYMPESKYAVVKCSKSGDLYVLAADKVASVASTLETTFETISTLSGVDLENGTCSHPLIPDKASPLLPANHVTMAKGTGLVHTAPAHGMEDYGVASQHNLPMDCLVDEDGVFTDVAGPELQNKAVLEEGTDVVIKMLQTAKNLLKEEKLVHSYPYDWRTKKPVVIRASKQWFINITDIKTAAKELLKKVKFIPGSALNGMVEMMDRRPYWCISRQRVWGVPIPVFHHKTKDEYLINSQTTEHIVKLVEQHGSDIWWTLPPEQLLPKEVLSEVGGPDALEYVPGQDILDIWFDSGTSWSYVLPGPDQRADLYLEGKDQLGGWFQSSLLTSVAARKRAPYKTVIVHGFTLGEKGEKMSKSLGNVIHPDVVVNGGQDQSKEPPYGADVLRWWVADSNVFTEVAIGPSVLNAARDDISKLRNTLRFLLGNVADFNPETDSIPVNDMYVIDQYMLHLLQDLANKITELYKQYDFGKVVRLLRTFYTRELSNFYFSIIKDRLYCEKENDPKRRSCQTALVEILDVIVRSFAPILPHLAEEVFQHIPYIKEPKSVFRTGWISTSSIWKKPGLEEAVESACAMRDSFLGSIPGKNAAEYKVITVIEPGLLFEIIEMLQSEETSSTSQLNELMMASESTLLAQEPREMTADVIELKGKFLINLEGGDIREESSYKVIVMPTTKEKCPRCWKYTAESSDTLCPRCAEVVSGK

[5] = biological target: Tyrosine-protein kinase Lck (Homo sapiens, UniProt P06239)
Chain of Tyrosine-protein kinase Lck (P06239 whole entry): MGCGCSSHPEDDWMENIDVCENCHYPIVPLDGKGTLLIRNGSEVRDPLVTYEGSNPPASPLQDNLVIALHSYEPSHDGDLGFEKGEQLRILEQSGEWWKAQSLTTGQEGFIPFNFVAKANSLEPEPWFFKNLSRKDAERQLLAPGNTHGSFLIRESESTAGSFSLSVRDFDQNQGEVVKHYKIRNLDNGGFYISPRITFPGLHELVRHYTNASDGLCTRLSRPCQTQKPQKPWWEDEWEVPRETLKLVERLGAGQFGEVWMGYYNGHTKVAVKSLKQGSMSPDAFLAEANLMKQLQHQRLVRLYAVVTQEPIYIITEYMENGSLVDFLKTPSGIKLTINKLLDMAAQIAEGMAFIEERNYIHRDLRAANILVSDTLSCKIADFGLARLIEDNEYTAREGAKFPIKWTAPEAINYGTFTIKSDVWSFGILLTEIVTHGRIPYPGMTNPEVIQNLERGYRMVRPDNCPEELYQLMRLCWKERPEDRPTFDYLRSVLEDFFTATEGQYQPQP

[6] = biological target: Mitogen-activated protein kinase 14 (Homo sapiens, UniProt Q16539)
[7] = biological target: MAP kinase-activated protein kinase 3 (Homo sapiens, UniProt Q16644)
Chain of MAP kinase-activated protein kinase 3 (Q16644 whole entry): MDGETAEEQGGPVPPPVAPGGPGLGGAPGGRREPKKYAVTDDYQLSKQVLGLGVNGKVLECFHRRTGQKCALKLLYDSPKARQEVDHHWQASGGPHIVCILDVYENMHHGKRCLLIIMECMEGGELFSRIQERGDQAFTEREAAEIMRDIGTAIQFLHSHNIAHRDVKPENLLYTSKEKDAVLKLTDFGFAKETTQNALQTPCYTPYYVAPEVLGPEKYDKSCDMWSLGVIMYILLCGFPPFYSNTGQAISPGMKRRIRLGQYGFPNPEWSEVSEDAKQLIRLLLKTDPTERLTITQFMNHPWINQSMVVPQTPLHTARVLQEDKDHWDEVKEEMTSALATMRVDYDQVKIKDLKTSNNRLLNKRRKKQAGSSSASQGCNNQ

[8] = biological target: Choline-phosphate cytidylyltransferase A (Homo sapiens, UniProt P49585)
Chain of Choline-phosphate cytidylyltransferase A (P49585 whole entry): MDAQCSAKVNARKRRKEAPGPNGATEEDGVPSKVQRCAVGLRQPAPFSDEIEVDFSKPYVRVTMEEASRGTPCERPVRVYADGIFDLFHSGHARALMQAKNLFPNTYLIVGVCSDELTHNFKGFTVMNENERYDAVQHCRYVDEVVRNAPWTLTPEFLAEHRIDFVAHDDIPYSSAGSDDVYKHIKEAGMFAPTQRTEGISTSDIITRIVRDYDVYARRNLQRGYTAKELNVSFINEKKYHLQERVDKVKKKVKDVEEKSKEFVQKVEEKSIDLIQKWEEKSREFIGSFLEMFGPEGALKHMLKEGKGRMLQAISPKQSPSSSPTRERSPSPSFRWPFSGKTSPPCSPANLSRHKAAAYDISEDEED

[9] = biological target: Phosphatidylethanolamine-binding protein 1 (Homo sapiens, UniProt P30086)
Chain of Phosphatidylethanolamine-binding protein 1 (P30086 whole entry): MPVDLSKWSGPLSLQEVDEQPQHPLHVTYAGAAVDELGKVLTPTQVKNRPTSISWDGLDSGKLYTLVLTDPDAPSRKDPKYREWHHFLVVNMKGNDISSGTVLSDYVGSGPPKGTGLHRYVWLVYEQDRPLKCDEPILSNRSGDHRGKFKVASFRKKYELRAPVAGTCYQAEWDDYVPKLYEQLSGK

[10] = biological target: Serine/threonine-protein kinase pim-2 (Homo sapiens, UniProt Q9P1W9)
Chain of Serine/threonine-protein kinase pim-2 (Q9P1W9 whole entry): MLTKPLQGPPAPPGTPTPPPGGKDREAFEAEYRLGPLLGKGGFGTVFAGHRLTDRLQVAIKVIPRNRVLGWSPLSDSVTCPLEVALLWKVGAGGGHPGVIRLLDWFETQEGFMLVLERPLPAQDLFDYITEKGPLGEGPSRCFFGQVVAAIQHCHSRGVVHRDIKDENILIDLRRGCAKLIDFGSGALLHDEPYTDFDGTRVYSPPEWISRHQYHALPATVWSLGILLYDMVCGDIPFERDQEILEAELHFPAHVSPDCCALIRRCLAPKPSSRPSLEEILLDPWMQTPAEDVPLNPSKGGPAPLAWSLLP

[11] = biological target: Serine/threonine-protein kinase N3 (Homo sapiens, UniProt Q6P5Z2)
Chain of Serine/threonine-protein kinase N3 (Q6P5Z2 whole entry): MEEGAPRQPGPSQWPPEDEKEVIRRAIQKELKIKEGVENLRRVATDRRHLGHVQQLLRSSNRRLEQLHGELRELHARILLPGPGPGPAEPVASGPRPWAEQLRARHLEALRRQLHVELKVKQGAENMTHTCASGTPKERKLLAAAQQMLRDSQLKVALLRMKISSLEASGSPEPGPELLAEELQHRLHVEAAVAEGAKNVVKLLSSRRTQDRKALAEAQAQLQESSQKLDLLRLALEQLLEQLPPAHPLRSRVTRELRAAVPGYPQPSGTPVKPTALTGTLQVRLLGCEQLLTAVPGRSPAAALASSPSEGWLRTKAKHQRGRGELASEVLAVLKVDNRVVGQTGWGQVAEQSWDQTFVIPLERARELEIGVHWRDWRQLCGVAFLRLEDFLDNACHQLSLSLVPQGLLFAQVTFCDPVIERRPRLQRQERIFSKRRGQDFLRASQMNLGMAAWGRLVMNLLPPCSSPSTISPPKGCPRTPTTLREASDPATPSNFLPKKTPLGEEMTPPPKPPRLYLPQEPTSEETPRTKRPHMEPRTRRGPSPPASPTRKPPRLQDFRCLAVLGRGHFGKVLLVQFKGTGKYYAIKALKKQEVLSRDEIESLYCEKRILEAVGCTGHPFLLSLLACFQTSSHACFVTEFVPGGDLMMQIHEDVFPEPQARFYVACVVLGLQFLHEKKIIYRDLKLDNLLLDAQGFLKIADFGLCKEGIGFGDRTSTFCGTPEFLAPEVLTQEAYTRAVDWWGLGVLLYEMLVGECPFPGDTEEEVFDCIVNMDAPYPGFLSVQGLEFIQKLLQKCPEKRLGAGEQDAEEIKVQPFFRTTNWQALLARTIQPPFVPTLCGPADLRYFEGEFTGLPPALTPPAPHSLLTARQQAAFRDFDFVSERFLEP

[12] = biological target: Protein kinase C theta type (Homo sapiens, UniProt Q04759)
Focal adhesion kinase 1 = Focal adhesion kinase 1 (Homo sapiens, UniProt Q05397)
[13] = biological target: Proto-oncogene tyrosine-protein kinase receptor Ret (Homo sapiens, UniProt P07949)
[14] = biological target: DNA topoisomerase 2-alpha (Homo sapiens, UniProt P11388)
[15] = biological target: Uncharacterized aarF domain-containing protein kinase 5 (Homo sapiens, UniProt Q3MIX3)
Chain of Uncharacterized aarF domain-containing protein kinase 5 (Q3MIX3 whole entry, the tested form may be a part): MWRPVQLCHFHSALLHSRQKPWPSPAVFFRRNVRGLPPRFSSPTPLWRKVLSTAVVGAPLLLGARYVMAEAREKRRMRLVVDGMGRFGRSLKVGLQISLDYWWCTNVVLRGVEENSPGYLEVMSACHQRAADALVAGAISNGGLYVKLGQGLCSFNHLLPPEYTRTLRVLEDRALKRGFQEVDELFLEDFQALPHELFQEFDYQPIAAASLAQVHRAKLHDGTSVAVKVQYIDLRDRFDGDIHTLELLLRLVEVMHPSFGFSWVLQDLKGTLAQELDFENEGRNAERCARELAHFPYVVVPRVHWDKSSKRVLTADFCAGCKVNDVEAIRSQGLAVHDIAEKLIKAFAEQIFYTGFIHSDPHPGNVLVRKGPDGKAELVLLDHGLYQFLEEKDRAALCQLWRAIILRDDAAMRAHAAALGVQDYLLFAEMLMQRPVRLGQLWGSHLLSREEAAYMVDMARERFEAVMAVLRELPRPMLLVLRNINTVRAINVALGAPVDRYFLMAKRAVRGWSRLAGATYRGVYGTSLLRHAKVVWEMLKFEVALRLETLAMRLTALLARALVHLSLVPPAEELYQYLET
Note: in the data inactive means no Kd found up to 30 µM.

Chain of Cyclin-dependent kinase 17 (Q00537 whole entry): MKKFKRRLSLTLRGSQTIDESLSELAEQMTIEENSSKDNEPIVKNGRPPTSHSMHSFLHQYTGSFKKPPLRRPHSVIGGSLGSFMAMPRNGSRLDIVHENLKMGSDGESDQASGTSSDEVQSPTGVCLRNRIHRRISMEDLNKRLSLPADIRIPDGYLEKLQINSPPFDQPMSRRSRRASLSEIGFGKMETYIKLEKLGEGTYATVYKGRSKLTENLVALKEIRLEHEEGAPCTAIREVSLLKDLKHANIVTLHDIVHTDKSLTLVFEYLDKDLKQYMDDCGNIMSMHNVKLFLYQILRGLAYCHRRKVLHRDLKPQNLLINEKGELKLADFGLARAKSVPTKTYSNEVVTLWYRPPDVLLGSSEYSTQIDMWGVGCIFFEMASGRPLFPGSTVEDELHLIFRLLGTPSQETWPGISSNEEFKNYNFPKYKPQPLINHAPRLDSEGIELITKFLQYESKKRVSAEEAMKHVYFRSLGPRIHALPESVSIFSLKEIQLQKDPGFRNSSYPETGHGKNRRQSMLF

Row | Kd [1] | Kd [2] | Kd [3] | Kd [4] | Kd [5] | Kd [6] | Kd [7] | Kd [8] | Kd [9] | Kd [10] | Kd [11] | Kd [12] | Kd (Focal adhesion kinase 1) | Kd [13] | Kd [14] | Kd [15] | Structure (SMILES)
1 | > 30 µM (inactive) | > 30 µM (inactive) | > 30 µM (inactive) | > 30 µM (inactive) | > 30 µM (inactive) | > 30 µM (inactive) | > 30 µM (inactive) | > 30 µM (inactive) | > 30 µM (inactive) | > 30 µM (inactive) | > 30 µM (inactive) | > 30 µM (inactive) | 0.191 µM (active) | 0.238 µM (active) | > 30 µM (inactive) |  | Cc1cc(Nc2nc(N[C@@H](C)c3ncc(F)cn3)ncc2Cl)n[nH]1 [AZD-1480]
2 | > 30 µM (inactive) | > 30 µM (inactive) | > 30 µM (inactive) |  | > 30 µM (inactive) | > 30 µM (inactive) | > 30 µM (inactive) | > 30 µM (inactive) | > 30 µM (inactive) | > 30 µM (inactive) | > 30 µM (inactive) | > 30 µM (inactive) | > 30 µM (inactive) | > 30 µM (inactive) | > 30 µM (inactive) | > 30 µM (inactive) | Cn1c(=O)c(F)c(Nc2ccc(I)cc2F)c2c(=O)n(C[C@@H](O)CO)cnc21 [TAK-733]
3 | > 30 µM (inactive) | > 30 µM (inactive) |  |  | > 30 µM (inactive) | > 30 µM (inactive) | > 30 µM (inactive) | > 30 µM (inactive) | > 30 µM (inactive) | > 30 µM (inactive) | > 30 µM (inactive) | > 30 µM (inactive) | > 30 µM (inactive) |  | > 30 µM (inactive) | > 30 µM (inactive) | CCc1cc2c(cc1N1CCC(N3CCOCC3)CC1)C(C)(C)c1[nH]c3cc(C#N)ccc3c1C2=O [ALECTINIB]
4 | > 30 µM (inactive) | > 30 µM (inactive) | > 30 µM (inactive) | > 30 µM (inactive) | > 30 µM (inactive) | > 30 µM (inactive) | > 30 µM (inactive) | > 30 µM (inactive) | > 30 µM (inactive) | > 30 µM (inactive) | > 30 µM (inactive) | > 30 µM (inactive) | > 30 µM (inactive) | 1.38 µM (active) | > 30 µM (inactive) | > 30 µM (inactive) | Cc1ccc(C(=O)Nc2ccc(Oc3cc4cnn(C)c4cc3-c3cn[nH]c3)c(F)c2)c(=O)n1-c1ccc(F)cc1 [MERESTINIB]
5 | > 30 µM (inactive) | > 30 µM (inactive) | > 30 µM (inactive) |  | > 30 µM (inactive) | > 30 µM (inactive) | > 30 µM (inactive) | > 30 µM (inactive) | > 30 µM (inactive) | > 30 µM (inactive) | > 30 µM (inactive) | > 30 µM (inactive) | > 30 µM (inactive) | > 30 µM (inactive) | > 30 µM (inactive) | > 30 µM (inactive) | c1cc(OCCN2CCCCC2)cc(-c2n[nH]c3ccc(-c4nc[nH]n4)cc23)c1 [CC-401]
6 | > 30 µM (inactive) | > 30 µM (inactive) | > 30 µM (inactive) |  | > 30 µM (inactive) |  | > 30 µM (inactive) | > 30 µM (inactive) |  | > 30 µM (inactive) | > 30 µM (inactive) | > 30 µM (inactive) | > 30 µM (inactive) | > 30 µM (inactive) | > 30 µM (inactive) | > 30 µM (inactive) | O=C(NOC[C@H](O)CO)c1ccc(F)c(F)c1Nc1ccc(I)cc1F [MIRDAMETINIB]
7 | > 30 µM (inactive) | > 30 µM (inactive) | 10.1 µM (active) | > 30 µM (inactive) | > 30 µM (inactive) | > 30 µM (inactive) | > 30 µM (inactive) | > 30 µM (inactive) | > 30 µM (inactive) | > 30 µM (inactive) | > 30 µM (inactive) | > 30 µM (inactive) | > 30 µM (inactive) | > 30 µM (inactive) | > 30 µM (inactive) | > 30 µM (inactive) | C#Cc1cccc(Nc2ncnc3cc4c(cc23)OCCOCCOCCO4)c1 [ICOTINIB]
